Test results published in the Deep4Chem optical property database.

Assay: solvent given as SMILES

Question: What does the source list for `CCN(CC)c1ccc(-c2cc3c(s2)c(C(=O)OC)cc(=O)n3C)cc1`?
Answer: emission maximum (in C1CCOC1): 543 nm; emission maximum (in CC#N): 605 nm; emission maximum (in CCO): 516 nm; emission maximum (in CN(C)C=O): 604 nm; emission maximum (in CO): 503 nm; emission maximum (in CS(C)=O): 615 nm; emission maximum (in Cc1ccccc1): 504 nm; emission maximum (in ClC(Cl)Cl): 545 nm; emission maximum (in ClCCl): 562 nm

Question: Which results are given for `CCOC(=O)C1CC(c2c(C#N)c(C)nn2-c2ccccc2)=CN1c1ccc(Br)cc1` (stereo not drawn)?
Answer: emission maximum (in C1CCOC1): 480 nm; emission maximum (in C1COCCO1): 480 nm; emission maximum (in CC#N): 488 nm; emission maximum (in CCCCCCC): 455 nm; emission maximum (in CCO): 490 nm; emission maximum (in O): 495 nm; emission maximum (in OCC(O)CO): 492 nm; emission maximum (in OCCO): 495 nm

Question: Which emission maximum (in Cc1ccccc1) does the source give for `N#Cc1cc(-n2c3ccccc3c3ccccc32)nc(-n2c3ccccc3c3ccccc32)n1` here?
Answer: 471 nm

Question: With `N#Cc1ccc(N2c3ccccc3C(c3ccccc3)(c3ccccc3)c3ccccc32)cc1` as the molecule, how does the emission maximum (in Cc1ccccc1) read?
Answer: 428 nm

Question: For `CCCCCCOc1cc(/C=C/c2cc(OCCCCCC)c(/C=C/c3cc(OCCCCCC)c(C=O)cc3OCCCCCC)cc2OCCCCCC)c(OCCCCCC)cc1C=O`, which emission maximum (in ClCCl) is on record?
Answer: 521 nm

Question: Which results are given for `C(=C\c1cc(/C=C/c2ccc(N(c3ccccc3)c3ccccc3)cc2)nc(/C=C/c2ccc(N(c3ccccc3)c3ccccc3)cc2)n1)/c1ccc(N(c2ccccc2)c2ccccc2)cc1`?
Answer: emission maximum (in C1CCOC1): 514 nm; emission maximum (in CC#N): 589 nm; emission maximum (in CC(C)=O): 555 nm; emission maximum (in CCCCCCC): 460 nm; emission maximum (in CS(C)=O): 586 nm; emission maximum (in Cc1ccccc1): 479 nm; emission maximum (in ClCCl): 544 nm

Question: With `CCCCCCCCn1c2ccccc2c(=O)c2ccccc21` as the molecule, how does the emission maximum (in CS(C)=O) read?
Answer: 414 nm

Question: Which emission maximum (in CCO) does the source give for `N#CC(C#N)=Cc1ccc(-c2cccc(-c3nc4ccccc4s3)c2O)s1` here?
Answer: 630 nm

Question: And the emission maximum (in ClCCl)?
Answer: 607 nm

Question: What about the emission maximum (in O) of the same molecule?
Answer: 646 nm

Question: For `CCOC(=O)C1(O)c2cc3ccc4cccc5ccc(c2C(=O)N1C(C)(C)C)c3c45` (stereo not drawn), which emission maximum (in ClC(Cl)Cl) is on record?
Answer: 387 nm

Question: With `N#Cc1ccc(C2=CC3=c4cc(-c5ccc(C#N)cc5)c5nc(C(F)(F)C(F)(F)C(F)(F)F)nc6c(-c7ccc(C#N)cc7)cc(c4c65)C4=CC(c5ccc(C#N)cc5)=C5N=C(C(F)(F)C(F)(F)C(F)(F)F)N=C2C5C43)cc1` (stereo not drawn) as the molecule, how does the emission maximum (in C1CCOC1) read?
Answer: 518 nm

Question: With `COc1cc(C=C(C#Cc2ccccc2)C#Cc2ccccc2)c(OC)cc1C=C(C#Cc1ccccc1)C#Cc1ccccc1` as the molecule, how does the emission maximum (in ClC(Cl)Cl) read?
Answer: 522 nm

Question: For `N#Cc1nc(N(Cc2ccc(Br)cc2)Cc2ccc(Br)cc2)c(C#N)nc1N(Cc1ccc(Br)cc1)Cc1ccc(Br)cc1`, which emission maximum (in ClC(Cl)Cl) is on record?
Answer: 575 nm

Question: With `COCCC1=Cc2nc1ccc1[nH]c(cc1CCOC)c1nc(c(N3C(=O)CCCC3=O)cc3[nH]c2cc3CCOC)C(CCOC)=C1` as the molecule, how does the emission maximum (in Cc1ccccc1) read?
Answer: 646 nm

Question: What does the source list for `CC1(C)Nc2ccccc2-c2[nH]c3ccccc3c(=O)c21`?
Answer: emission maximum (in C1CCOC1): 483 nm; emission maximum (in CC#N): 507 nm; emission maximum (in CCCCO): 521 nm; emission maximum (in CCCO): 522 nm; emission maximum (in CCO): 523 nm; emission maximum (in CCOC(C)=O): 491 nm; emission maximum (in CN(C)C=O): 506 nm; emission maximum (in CO): 531 nm; emission maximum (in CS(C)=O): 510 nm; emission maximum (in Cc1ccccc1): 471 nm; emission maximum (in ClC(Cl)(Cl)Cl): 460 nm; emission maximum (in ClCCl): 491 nm; emission maximum (in O): 552 nm; emission maximum (in c1ccccc1): 474 nm

Question: With `N#Cc1cccc2c(N)c(-c3nn([C@H]4C[C@H](O)[C@@H](CO)O4)c4ncnc(N)c34)ccc12` as the molecule, how does the emission maximum (in C1COCCO1) read?
Answer: 488 nm

Question: And the emission maximum (in CC#N)?
Answer: 513 nm

Question: And the emission maximum (in CC(C)O)?
Answer: 514 nm

Question: What about the emission maximum (in CCO) of the same molecule?
Answer: 520 nm

Question: What about the emission maximum (in CCOC(C)=O) of the same molecule?
Answer: 494 nm

Question: And the emission maximum (in CN(C)C=O)?
Answer: 524 nm

Question: And the emission maximum (in CO)?
Answer: 527 nm

Question: What about the emission maximum (in CS(C)=O) of the same molecule?
Answer: 534 nm

Question: And the emission maximum (in OCC(O)CO)?
Answer: 522 nm

Question: What about the emission maximum (in OCCO) of the same molecule?
Answer: 529 nm

Question: For `Cc1cc(C2=C(c3cc(C)sc3C)S(=O)(=O)c3ccccc32)c(C)s1`, which emission maximum (in C1CCOC1) is on record?
Answer: 465 nm

Question: For `CCCC1(CCC)c2ccccc2-c2ccc(-c3ccc(C(C)(C)C)cc3)cc21`, which emission maximum (in C1CCCCC1) is on record?
Answer: 314 nm

Question: Which emission maximum (in ClCCl) does the source give for `CC(C)(C)c1cc(-c2c3cc(c(-c4cc(C(C)(C)C)cc(C(C)(C)C)c4)c4ccc([nH]4)c(-c4ccc(Br)cc4)c4nc(c(-c5ccc(Br)cc5)c5ccc2[nH]5)C=C4)N=C3)cc(C(C)(C)C)c1` here?
Answer: 741 nm

Question: With `C[N+]1=C(/C=C/C=C2/N(CCC[N+](C)(C)C)c3ccc(Br)cc3C2(C)C)C(C)(C)c2ccccc21` as the molecule, how does the emission maximum (in CS(C)=O) read?
Answer: 568 nm

Question: Which results are given for `O=Cc1ccc(C2=C3C=c4c(oc5ccccc45)=[N+]3[B-](F)(F)n3c2cc2c4ccccc4oc23)cc1`?
Answer: emission maximum (in C1CCCCC1): 612 nm; emission maximum (in C1CCOC1): 615 nm; emission maximum (in CC#N): 611 nm; emission maximum (in CCOC(C)=O): 610 nm; emission maximum (in CN(C)C=O): 615.5 nm; emission maximum (in CO): 609.5 nm; emission maximum (in Cc1ccccc1): 620.5 nm; emission maximum (in ClCCl): 618.5 nm

Question: Which emission maximum (in C1COCCO1) does the source give for `COc1nc(Nc2ccc3c4cccc5cccc(c6cccc2c63)c54)nc(OC)n1` here?
Answer: 478 nm

Question: What about the emission maximum (in CC#N) of the same molecule?
Answer: 479 nm

Question: And the emission maximum (in CCCCOCCCC)?
Answer: 477 nm

Question: And the emission maximum (in CCOC(C)=O)?
Answer: 477 nm

Question: With `COc1ccc(-c2cc(-c3ccc(N(C)C)cc3)nc(-c3ccccc3)n2)cc1` as the molecule, how does the emission maximum (in ClC(Cl)Cl) read?
Answer: 453 nm

Question: For `CCCCCCCCOc1ccc(-c2c3c4n(c(-c5ccc(OCCCCCCCC)cc5)c3c3n2[B-](F)(F)[n+]2c(ccc5cc(C(C)(C)C)ccc52)C=3C#N)[B-](F)(F)[n+]2c(ccc3cc(C(C)(C)C)ccc32)C=4C#N)cc1`, which emission maximum (in ClC(Cl)Cl) is on record?
Answer: 773 nm
